What was measured:
[1] = system: microorganisms; conditions: 1996 paper, Fundamental and Applied Toxicology; cited from earlier work
[2] = system: S. marcescens bacteria; experiment: Growth test of S. marcescens, 15 s exposure, CASO plate (Example 4); format: cell-based; conditions: exposed 15 seconds, 0.1 mL plated
Protocol: (§1) Both S. marcescens and E. coil were cultured in CASO broth overnight. The cells were exposed to one of four compounds for 15 seconds: DE broth, 60% Isopropyl Alcohol (IPA), A hand sanitizer on the market with 62% ethanol as an active ingredient (HSM), and the hand sanitizer specified in the patent (WB). The samples were then diluted by factors of powers of ten from a 10^−1 dilution to a 10^−10 dilution. 0.1 mL of each dilution was then plated onto a CASO plate, and then incubated for 24 hours. Note—the abbreviation “TNTC” stands for “too numerous to count”. “Lawn” represents a sample that was filled with bacteria.

[3] = system: E. coli bacteria; experiment: Growth test of E. coli, different growth medium, 0.5 mL plated (Example 3); format: cell-based; conditions: exposed 10 s
Protocol: A 50 mL culture of the bacterium […] marcescens (S. marcescens) was grown, and four compounds were tested: an ethanol-based hand sanitizer currently on the market with 63% ethyl alcohol as the active ingredient, 60% isopropyl alcohol, and water as a control. 0.05 mL of the culture was exposed to one of the compounds for 15 and 60 seconds (except for the water, which was exposed for 30 seconds), and diluted by factors of powers of ten from a 10^-1 dilution to a 10^-10 dilution. 1 mL of each dilution was plated onto a CASO (a type of media) plate, and was incubated at 25 degrees Celsius (77 degrees Fahrenheit) for 48 hours. The colonies on the plates were then counted. The following is a table of the number of colonies on each plate (note-“Lawn” means that there were too many colonies to count individually). Example 2 followed the same protocol as Example 1, except E. coli bacteria were used instead of S. marcescens. Example 3 followed the same protocol as Example 2, except for the following: A different type of growth medium was used on the plates, and 0.5 mL of culture was plated onto each plate instead of 1 mL in order to prevent flooding the plate. In this Example, 60% isopropanol, an ethanol-based hand sanitizer on the market and the hand sanitizer proposed in the patent were all exposed to bacteria for 10 seconds, than plated.

[4] = system: E. coli bacteria; experiment: Growth test of E. coli after exposure to sanitizer, dilution plating (Example 2); format: cell-based
Protocol: A 50 mL culture of the bacterium […] marcescens (S. marcescens) was grown, and four compounds were tested: an ethanol-based hand sanitizer currently on the market with 63% ethyl alcohol as the active ingredient, 60% isopropyl alcohol, and water as a control. 0.05 mL of the culture was exposed to one of the compounds for 15 and 60 seconds (except for the water, which was exposed for 30 seconds), and diluted by factors of powers of ten from a 10^-1 dilution to a 10^-10 dilution. 1 mL of each dilution was plated onto a CASO (a type of media) plate, and was incubated at 25 degrees Celsius (77 degrees Fahrenheit) for 48 hours. The colonies on the plates were then counted. The following is a table of the number of colonies on each plate (note-“Lawn” means that there were too many colonies to count individually). Example 2 followed the same protocol as Example 1, except E. coli bacteria were used instead of S. marcescens.

[5] = system: Seratia marcescens (S. marcescens); experiment: Growth test of S. marcescens after exposure to sanitizer, dilution plating (Example 1); format: cell-based
Protocol: A 50 mL culture of the bacterium […] marcescens (S. marcescens) was grown, and four compounds were tested: an ethanol-based hand sanitizer currently on the market with 63% ethyl alcohol as the active ingredient, 60% isopropyl alcohol, and water as a control. 0.05 mL of the culture was exposed to one of the compounds for 15 and 60 seconds (except for the water, which was exposed for 30 seconds), and diluted by factors of powers of ten from a 10^-1 dilution to a 10^-10 dilution. 1 mL of each dilution was plated onto a CASO (a type of media) plate, and was incubated at 25 degrees Celsius (77 degrees Fahrenheit) for 48 hours. The colonies on the plates were then counted. The following is a table of the number of colonies on each plate (note-“Lawn” means that there were too many colonies to count individually).

[6] = system: E. coli bacteria; experiment: Growth test of E. coli, 15 s exposure (Example 5); format: cell-based; conditions: exposed 15 seconds
Protocol: (§2) Both S. marcescens and E. coil were cultured in CASO broth overnight. The cells were exposed to one of four compounds for 15 seconds: DE broth, 60% Isopropyl Alcohol (IPA), A hand sanitizer on the market with 62% ethanol as an active ingredient (HSM), and the hand sanitizer specified in the patent (WB). The samples were then diluted by factors of powers of ten from a 10^−1 dilution to a 10^−10 dilution. 0.1 mL of each dilution was then plated onto a CASO plate, and then incubated for 24 hours. For Example 5, there was no ethanol present in the hand sanitizer formulation. The formulation consisted of 45% by volume of n-butanol, 10% of the humectant, and the remainder being water. The protocol followed for Example 5 was the same as the protocol for Example 4.

[7] = system: S. marcescens bacteria; experiment: Growth test of S. marcescens, 15 s exposure (Example 5); format: cell-based; conditions: exposed 15 seconds
Protocol: as §2

[8] = system: E. coli bacteria; experiment: Growth test of E. coli, 15 s exposure, CASO plate (Example 4); format: cell-based; conditions: exposed 15 seconds, 0.1 mL plated
Protocol: as §1

CCCCCO [1-pentanol]
effectiveness in killing microorganisms compared with ethanol [1]: more effective

CCCO [1-propanol]
effectiveness in killing microorganisms compared with ethanol [1]: more effective

CC(C)O [IPA, isopropyl alcohol]
growth test plate count ([2]; 10^−1 dilution): 1
growth test plate count ([2]; 10^−2 dilution): 3
growth test plate count ([2]; 10^−3 dilution): 10
growth test plate count ([2]; 10^−4 dilution): 6
growth test plate count ([2]; 10^−5 dilution): 2
number of colonies on plate ([3]; 10^−1 dilution): 0 colonies
number of colonies on plate ([3]; 10^−2 dilution): 0 colonies
number of colonies on plate ([3]; 10^−3 dilution): 0 colonies
number of colonies on plate ([3]; 10^−4 dilution): 0 colonies
number of colonies on plate ([3]; 10^−5 dilution): 0 colonies
number of colonies on plate ([3]; 10^−6 dilution): 0 colonies
number of colonies on plate ([3]; 10^−7 dilution): 0 colonies
number of colonies on plate ([3]; 10^−8 dilution): 0 colonies
number of colonies on plate ([3]; 10^−9 dilution): 0 colonies
number of colonies on plate ([3]; 10^−10 dilution): 0 colonies
number of colonies on plate ([4]; exposed 15 s, 10^−1 dilution): 0 colonies
number of colonies on plate ([4]; exposed 15 s, 10^−2 dilution): 0 colonies
number of colonies on plate ([4]; exposed 15 s, 10^−3 dilution): 0 colonies
number of colonies on plate ([4]; exposed 15 s, 10^−4 dilution): 0 colonies
number of colonies on plate ([4]; exposed 15 s, 10^−5 dilution): 0 colonies
number of colonies on plate ([4]; exposed 15 s, 10^−6 dilution): 0 colonies
number of colonies on plate ([4]; exposed 15 s, 10^−7 dilution): 0 colonies
number of colonies on plate ([4]; exposed 15 s, 10^−8 dilution): 0 colonies
number of colonies on plate ([4]; exposed 15 s, 10^−9 dilution): 0 colonies
number of colonies on plate ([4]; exposed 15 s, 10^−10 dilution): 0 colonies
number of colonies on plate ([4]; exposed 60 s, 10^−1 dilution): 0 colonies
number of colonies on plate ([4]; exposed 60 s, 10^−2 dilution): 0 colonies
number of colonies on plate ([4]; exposed 60 s, 10^−3 dilution): 0 colonies
number of colonies on plate ([4]; exposed 60 s, 10^−4 dilution): 0 colonies
number of colonies on plate ([4]; exposed 60 s, 10^−5 dilution): 0 colonies
number of colonies on plate ([4]; exposed 60 s, 10^−6 dilution): 0 colonies
number of colonies on plate ([4]; exposed 60 s, 10^−7 dilution): 0 colonies
number of colonies on plate ([4]; exposed 60 s, 10^−8 dilution): 0 colonies
number of colonies on plate ([4]; exposed 60 s, 10^−9 dilution): 0 colonies
number of colonies on plate ([4]; exposed 60 s, 10^−10 dilution): 0 colonies
number of colonies on plate ([5]; exposed 15 s, 10^−1 dilution): 0 colonies
number of colonies on plate ([5]; exposed 15 s, 10^−2 dilution): 0 colonies
number of colonies on plate ([5]; exposed 15 s, 10^−3 dilution): 0 colonies
number of colonies on plate ([5]; exposed 15 s, 10^−4 dilution): 0 colonies
number of colonies on plate ([5]; exposed 15 s, 10^−5 dilution): 0 colonies
number of colonies on plate ([5]; exposed 15 s, 10^−6 dilution): 0 colonies
number of colonies on plate ([5]; exposed 15 s, 10^−7 dilution): 0 colonies
number of colonies on plate ([5]; exposed 15 s, 10^−8 dilution): 0 colonies
number of colonies on plate ([5]; exposed 15 s, 10^−9 dilution): 0 colonies
number of colonies on plate ([5]; exposed 15 s, 10^−10 dilution): 0 colonies
number of colonies on plate ([5]; exposed 60 s, 10^−1 dilution): 0 colonies
number of colonies on plate ([5]; exposed 60 s, 10^−2 dilution): 0 colonies
number of colonies on plate ([5]; exposed 60 s, 10^−3 dilution): 0 colonies
number of colonies on plate ([5]; exposed 60 s, 10^−4 dilution): 0 colonies
number of colonies on plate ([5]; exposed 60 s, 10^−5 dilution): 0 colonies
number of colonies on plate ([5]; exposed 60 s, 10^−6 dilution): 0 colonies
number of colonies on plate ([5]; exposed 60 s, 10^−7 dilution): 0 colonies
number of colonies on plate ([5]; exposed 60 s, 10^−8 dilution): 0 colonies
number of colonies on plate ([5]; exposed 60 s, 10^−9 dilution): 0 colonies
number of colonies on plate ([5]; exposed 60 s, 10^−10 dilution): 0 colonies
growth test plate count ([6]; 10^−1 dilution): 0
growth test plate count ([6]; 10^−2 dilution): 0
growth test plate count ([6]; 10^−3 dilution): 0
growth test plate count ([6]; 10^−4 dilution): 0
growth test plate count ([6]; 10^−5 dilution): 0
growth test plate count ([7]; 10^−1 dilution): 0
growth test plate count ([7]; 10^−2 dilution): 0
growth test plate count ([7]; 10^−3 dilution): 0
growth test plate count ([7]; 10^−4 dilution): 0
growth test plate count ([7]; 10^−5 dilution): 0
growth test plate count ([8]; 10^−1 dilution): 0
growth test plate count ([8]; 10^−2 dilution): 0
growth test plate count ([8]; 10^−3 dilution): 0
growth test plate count ([8]; 10^−4 dilution): 0
growth test plate count ([8]; 10^−5 dilution): 0

CCCCO [1-butanol]
effectiveness in killing microorganisms compared with ethanol [1]: more effective

Source: patent US9456602B2, “Method for the formulation of hand sanitizer” (Working Bugs, LLC, priority 2011, dated 2016)
